# Results published in patent US7879887B2, “α-amino acid derivatives and medicaments containing the same as an active ingredient” (Nissan Chemical Industries, Ltd., priority 2006, dated 2011).
# Assays:
# [1] = molecular target: T1, Aurora A (Homo sapiens, UniProt O14965); assay: In vitro kinase assay, Aurora A; format: biochemical; conditions: recombinant protein (Upstate)
# T1 construct: purchased Upstate Inc. 14-511
# T1 sequence (O14965 1-403): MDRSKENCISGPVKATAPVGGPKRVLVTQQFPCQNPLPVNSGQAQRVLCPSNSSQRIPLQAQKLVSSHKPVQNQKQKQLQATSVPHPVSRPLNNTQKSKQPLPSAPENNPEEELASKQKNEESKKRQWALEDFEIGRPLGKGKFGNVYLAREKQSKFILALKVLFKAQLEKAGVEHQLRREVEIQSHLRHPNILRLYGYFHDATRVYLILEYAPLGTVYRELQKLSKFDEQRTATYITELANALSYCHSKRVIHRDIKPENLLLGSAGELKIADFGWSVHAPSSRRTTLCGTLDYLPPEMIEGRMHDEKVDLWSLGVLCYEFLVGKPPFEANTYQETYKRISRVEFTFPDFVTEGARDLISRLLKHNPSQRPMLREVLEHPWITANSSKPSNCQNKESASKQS
# Protocol: (§1) Inhibitory activity against Aurora A, CDK1/Cyclin B complex, CDK2/Cyclin E complex and CDK3/Cyclin E complex were measured by in vitro kinase assay using recombinant proteins. The assays were carried out by using recombinant proteins (Upstate Inc.) for Aurora A, CDK1/Cyclin B complex, CDK2/Cyclin E complex and CDK3/Cyclin E complex (respective cat. nos. 14-511, 14-450, 14-448 and 14-487), in accordance with the procedure described in the product instructions thereof. The 50% inhibitory concentrations (IC50 values) were calculated by assigning measured values in the case of not containing a test compound to an inhibition of 0%, and assigning measured values in the case of not containing a test compound and enzyme to an inhibition of 100%.
# [2] = molecular target: CDK2/Cyclin E complex (Homo sapiens, UniProt P24941); assay: In vitro kinase assay, CDK2/Cyclin E complex; format: biochemical; conditions: recombinant protein (Upstate); read-out: CDK2/cyclinE IC50
# Protocol: (§2) Inhibitory activity against Aurora A, CDK1/Cyclin B complex, CDK2/Cyclin E complex and CDK3/Cyclin E complex were measured by in vitro kinase assay using recombinant proteins.
# [3] = tested on: colon carcinoma cell line SW620; assay: Cell proliferation inhibitory activity, SW620; format: cell-based, human; conditions: cells counted 4 days later with Cell Counting Kit-8
# Protocol: (§3) Evaluations were carried out using colon carcinoma cell line SW620 (Cat. No. CCL-227), lung carcinoma cell line NCI-H460 (Cat. No. HTB-177), prostate cancer cell line DU 145 (Cat. No. HTB-81), breast cancer cell line MDA-MB-231 (Cat. No. HTB26) and leukemia cell line KG-1a (Cat. No. CCL-246.1) purchased from ATCC, pancreatic cancer cell line MIAPaCa-2 (Cat. No. CRL-1420) purchased from Dainippon Pharmaceutical, and ovarian cancer cell line IGROV1 received from the Netherland Cancer Institute. The cells were cultured under the conditions recommended by the supplier for each cell line, or with respect to IGROV1, according to the method described in Cancer Res. 59: 4559-4563, 1999. Cells suspended in media were added to solutions containing the test substances at various concentrations followed by culturing in a 5% CO2 incubator at 37° C. The numbers of cells were counted 4 days later with the Cell Counting Kit-8. IC50 values were calculated by assigning measured values in the case of not containing a test substance to an inhibition of 0%, and assigning measured values in the case of not containing a test substance or cells to an inhibition of 100%.
# [4] = tested on: ovarian cancer cell line IGROV1; assay: Cell proliferation inhibitory activity, IGROV1; format: cell-based; conditions: cells counted 4 days later with Cell Counting Kit-8
# Protocol: as §3
# [5] = tested on: leukemia cell line KG-1a; assay: Cell proliferation inhibitory activity, KG-1a; format: cell-based; conditions: cells counted 4 days later with Cell Counting Kit-8
# Protocol: as §3
# [6] = molecular target: T2, CDK3/Cyclin E complex (Homo sapiens, UniProt Q00526); assay: In vitro kinase assay, CDK3/Cyclin E complex; format: biochemical; conditions: recombinant protein (Upstate); read-out: CDK3/cyclinE IC50
# T2 construct: purchased Upstate Inc. 14-487
# T2 sequence (Q00526 whole entry): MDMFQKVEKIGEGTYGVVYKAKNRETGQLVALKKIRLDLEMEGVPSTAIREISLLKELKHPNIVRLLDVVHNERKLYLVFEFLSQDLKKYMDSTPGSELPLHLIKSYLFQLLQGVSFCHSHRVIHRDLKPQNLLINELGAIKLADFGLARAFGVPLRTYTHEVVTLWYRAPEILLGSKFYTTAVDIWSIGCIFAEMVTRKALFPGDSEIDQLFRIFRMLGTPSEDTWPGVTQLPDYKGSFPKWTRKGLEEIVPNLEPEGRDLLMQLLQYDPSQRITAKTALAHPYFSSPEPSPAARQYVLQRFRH
# T2 sequence (P24864 whole entry partner): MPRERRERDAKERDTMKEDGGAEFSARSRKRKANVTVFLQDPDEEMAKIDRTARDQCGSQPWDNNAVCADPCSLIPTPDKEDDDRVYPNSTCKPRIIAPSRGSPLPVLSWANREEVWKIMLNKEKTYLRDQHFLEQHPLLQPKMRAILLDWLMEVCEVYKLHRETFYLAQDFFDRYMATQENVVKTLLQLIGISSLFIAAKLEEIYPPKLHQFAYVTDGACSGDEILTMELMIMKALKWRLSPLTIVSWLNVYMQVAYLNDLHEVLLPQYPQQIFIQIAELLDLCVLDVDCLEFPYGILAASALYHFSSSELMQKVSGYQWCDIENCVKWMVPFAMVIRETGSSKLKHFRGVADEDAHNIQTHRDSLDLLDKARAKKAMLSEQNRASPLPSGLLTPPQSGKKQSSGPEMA
# Protocol: as §2
# [7] = tested on: breast cancer cell line MDA-MB-231; assay: Cell proliferation inhibitory activity, MDA-MB-231; format: cell-based; conditions: cells counted 4 days later with Cell Counting Kit-8
# Protocol: as §3
# [8] = tested on: prostate cancer cell line DU 145; assay: Cell proliferation inhibitory activity, DU 145; format: cell-based, human; conditions: cells counted 4 days later with Cell Counting Kit-8
# Protocol: as §3
# [9] = molecular target: T3, CDK1/Cyclin B complex (Homo sapiens, UniProt P06493); assay: In vitro kinase assay, CDK1/Cyclin B complex; format: biochemical; conditions: recombinant protein (Upstate)
# T3 construct: purchased Upstate Inc. 14-450
# T3 sequence (P06493 whole entry): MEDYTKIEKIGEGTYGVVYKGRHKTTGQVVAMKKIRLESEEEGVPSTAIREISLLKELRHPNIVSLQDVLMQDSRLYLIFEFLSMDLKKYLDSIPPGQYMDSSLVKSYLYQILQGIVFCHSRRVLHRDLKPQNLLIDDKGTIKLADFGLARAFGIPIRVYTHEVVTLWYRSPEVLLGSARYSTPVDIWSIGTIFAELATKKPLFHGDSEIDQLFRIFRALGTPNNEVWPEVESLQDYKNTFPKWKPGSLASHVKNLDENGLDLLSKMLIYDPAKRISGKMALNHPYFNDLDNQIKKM
# T3 sequence (P14635 whole entry partner): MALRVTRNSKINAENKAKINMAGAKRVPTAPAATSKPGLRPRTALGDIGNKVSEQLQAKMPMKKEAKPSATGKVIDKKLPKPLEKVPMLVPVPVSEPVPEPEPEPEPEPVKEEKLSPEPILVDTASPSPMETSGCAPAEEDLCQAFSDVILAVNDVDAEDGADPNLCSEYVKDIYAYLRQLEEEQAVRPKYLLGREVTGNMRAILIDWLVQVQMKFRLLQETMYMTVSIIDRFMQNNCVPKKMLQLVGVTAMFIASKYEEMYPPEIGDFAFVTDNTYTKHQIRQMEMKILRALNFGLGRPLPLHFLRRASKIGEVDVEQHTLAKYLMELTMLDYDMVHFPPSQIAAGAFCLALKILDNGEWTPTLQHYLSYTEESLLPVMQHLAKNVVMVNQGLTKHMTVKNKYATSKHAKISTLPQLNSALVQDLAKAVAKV
# Protocol: as §1
# [10] = tested on: lung carcinoma cell line NCI-H460; assay: Cell proliferation inhibitory activity, NCI-H460; format: cell-based; conditions: cells counted 4 days later with Cell Counting Kit-8
# Protocol: as §3
IC50 [3],IC50 [4],IC50 [5],IC50 [8],IC50 [10],IC50 [7],SMILES,IC50 [1],IC50 [2],"IC50 ([3]; Homo sapiens, SW-620, 96 h)","IC50 ([4]; Homo sapiens, IGROV-1, 96 h)","IC50 ([5]; Homo sapiens, 96 h)",IC50 [6],"IC50 ([7]; Homo sapiens, 96 h)","IC50 ([8]; Homo sapiens, 96 h)",IC50 [9],"IC50 ([10]; Homo sapiens, 96 h)"
,,,,,,COC(=O)Nc1cc(NC(C)(C)C(=O)Nc2nc3ccc4[nH]ncc4c3s2)ccc1Cl [compound 50],0.426 µM,0.435 µM,2.5 µM,4.8 µM,< 0.1 µM,,,,,
,,,,,,O=C(Nc1nc2ccc3[nH]ncc3c2s1)C1(Nc2ccc(Cl)cc2)CCC1 [compound 114],,0.083 µM,0.7 µM,,< 0.1 µM,0.174 µM,4.7 µM,,,
1.6 µM,4.6 µM,< 0.1 µM,,,,COc1cccc(NCC(=O)Nc2nc3ccc4[nH]ncc4c3s2)c1 [compound 1],,,,,,,,,,
,,,,,,O=C(Nc1nc2ccc3[nH]ncc3c2s1)C1(Nc2ccc(Cl)cc2)CCCC1 [compound 115],,0.154 µM,0.7 µM,4.8 µM,< 0.1 µM,0.217 µM,3.9 µM,3.2 µM,,
,,,,,,CNC(=O)Nc1cc(NC(C)(C)C(=O)Nc2nc3c(C(F)(F)F)cc4[nH]ncc4c3s2)ccc1Cl [compound 90],,0.16 µM,1.3 µM,,,0.07 µM,4.4 µM,1.9 µM,0.365 µM,2.5 µM
,,,,,,CC(C)(Nc1ccc(Cl)c(NS(C)(=O)=O)c1)C(=O)Nc1nc2c(C(F)(F)F)cc3[nH]ncc3c2s1 [compound 84],0.247 µM,0.044 µM,1.6 µM,,0.2 µM,0.044 µM,4.8 µM,3.4 µM,0.205 µM,3.2 µM
,,,,,,O=C(Nc1nc2ccc3[nH]ncc3c2s1)C1(Nc2cccc(O)c2)CC1 [compound 122],0.168 µM,0.056 µM,1.1 µM,4.9 µM,< 0.1 µM,0.063 µM,3.1 µM,4.5 µM,0.197 µM,4 µM
1.8 µM,4.5 µM,,4.2 µM,2 µM,2.8 µM,CC(C)(Nc1ccc(Cl)c(OCCCS(N)(=O)=O)c1)C(=O)Nc1nc2c(C(F)(F)F)cc3[nH]ncc3c2s1 [compound 94],,,,,,,,,,
,,,,,,O=C(CNc1cccc(F)c1)Nc1nc2ccc3[nH]ncc3c2s1 [compound 3],,0.199 µM,1.7 µM,4.9 µM,0.1 µM,0.391 µM,4.7 µM,,,
,,,,,,O=C(Nc1nc2ccc3[nH]ncc3c2s1)C1(Nc2ccc(Cl)cc2)CCCCC1 [compound 116],,0.245 µM,1 µM,4.9 µM,0.2 µM,0.412 µM,,3.4 µM,0.486 µM,
,,,,,,O=C(CNc1ccccc1)Nc1nc2ccc3[nH]ncc3c2s1 [compound 104],,0.412 µM,1 µM,4.7 µM,< 0.1 µM,0.395 µM,4.9 µM,,,
,,,,,,Nc1cccc(NCC(=O)Nc2nc3ccc4[nH]ncc4c3s2)c1 [compound 11],,0.192 µM,1.6 µM,4.8 µM,< 0.1 µM,0.355 µM,,,,
